According to patent US10822345B2 (4SC AG, priority 2015, dated 2020):

Target: Kv1.3 (Homo sapiens (Human), UniProt P22001)
Test: Patch-clamp assay for inhibitory activity on Kv1.3 (whole cell recording)
Format: cell-based
Conditions: n≥2 per concentration, three or more concentrations
Protocol: Patch-Clamp Assay for Inhibitory Activity on Kv1.3
For a description of a Kv1.3 patch-clamp assay, see Grissmer et al., Mol. Pharmacol. 1994, 45, 1227; whole cell patch-clamp recording was performed with n≥2 individual experiments at each compound concentration using different cells. Three or more different concentrations were determined per dose response curve.

Kv1.3, sequence (P22001 whole entry): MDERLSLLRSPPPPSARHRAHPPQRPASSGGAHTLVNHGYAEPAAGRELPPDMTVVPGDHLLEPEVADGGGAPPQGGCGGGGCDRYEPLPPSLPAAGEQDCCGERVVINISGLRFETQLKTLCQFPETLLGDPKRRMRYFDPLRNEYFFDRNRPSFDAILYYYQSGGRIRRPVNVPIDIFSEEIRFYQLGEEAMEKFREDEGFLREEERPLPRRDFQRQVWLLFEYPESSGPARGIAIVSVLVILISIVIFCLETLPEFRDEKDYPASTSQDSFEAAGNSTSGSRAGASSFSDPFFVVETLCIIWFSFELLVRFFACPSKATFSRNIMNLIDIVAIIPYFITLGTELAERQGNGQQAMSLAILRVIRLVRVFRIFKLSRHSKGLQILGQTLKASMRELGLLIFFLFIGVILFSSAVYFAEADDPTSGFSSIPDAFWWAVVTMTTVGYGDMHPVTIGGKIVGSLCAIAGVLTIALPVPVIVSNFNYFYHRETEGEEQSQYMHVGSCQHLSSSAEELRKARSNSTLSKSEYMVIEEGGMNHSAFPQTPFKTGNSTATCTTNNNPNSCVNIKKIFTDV

IC50 [nM] | Structure (SMILES)
≤ 500 | Cc1c(-c2cccnc2)c2cc3c(C)coc3c(C)c2oc1=O [Example 53, 3,6,9-trimethyl-5-(pyridin-3-yl)-7H-furo[3,2-g]chromen-7-one]
≤ 500 | Cc1c(-c2ccccc2)c2cc3c(C)coc3nc2oc1=O [Example 25, 3,6-dimethyl-5-phenyl-7H-furo[2,3-b]pyrano[3,2-e]pyridin-7-one]
≤ 500 | Cc1c(-c2ccccc2)c2cc3c(C)coc3c(C)c2[nH]c1=O [Example 31, 3,6,9-trimethyl-5-phenylfuro[3,2-g]quinolin-7(8H)-one]
1500 to 3000 | Cc1c(-c2ccccc2)c2cc3c(C)c(C#N)oc3c(C)c2oc1=O [Example 45]
≤ 500 | Cc1c2oc(=O)cc(-c3ccccc3)c2cc2c(C3CC3)coc12 [Example 41, 3-cyclopropyl-9-methyl-5-phenyl-7H-furo[3,2-g]chromen-7-one]
≤ 500 | Cc1c(-c2ccccc2F)c2cc3c(C)coc3c(C)c2n(C)c1=O [Example 61, 5-(2-fluorophenyl)-3,6,8,9-tetramethylfuro[3,2-g]quinolin-7(8H)-one]
≤ 500 | Cc1c(-c2ccccc2)c2cc3c(C)coc3c(C)c2oc1=O [Example 9, 3,6,9-trimethyl-5-phenyl-7H-furo[3,2-g]chromen-7-one]
≤ 500 | CCOc1ccccc1-c1c(C)c(=O)oc2c(C)c3occ(C)c3cc12 [Example 10, 5-(2-ethoxyphenyl)-3,6,9-trimethyl-7H-furo[3,2-g]chromen-7-one]
≤ 500 | Cc1c(-c2ccccc2F)c2cc3c(C)coc3c(C)c2oc1=O [Example 5, 5-(2-fluorophenyl)-3,6,9-trimethyl-7H-furo[3,2-g]chromen-7-one]
≤ 500 | Cc1c(-c2ccccc2)c2cc3c(C)csc3c(C)c2oc1=O [Example 43, 3,6,9-trimethyl-4-phenyl-2H-thieno[3,2-g]chromen-2-one]

Further lines, the compound ahead of its results:

Structure (SMILES) | IC50 [nM]
Cc1c(-c2ccccc2Cl)c2cc3c(C)coc3c(C)c2oc1=O [Example 11, 5-(2-chlorophenyl)-3,6,9-trimethyl-7H-furo[3,2-g]chromen-7-one] | ≤ 500
COc1ncccc1-c1c(C)c(=O)oc2c(C)c3occ(C)c3cc12 [Example 62, 5-(2-methoxypyridin-3-yl)-3,6,9-trimethyl-7H-furo[3,2-g]chromen-7-one] | 501 to 1500
Cc1coc2c(C)c3[nH]c(=O)c(Br)c(-c4ccccc4)c3cc12 [Example 26, 6-bromo-3,9-dimethyl-5-phenylfuro[3,2-g]quinolin-7(8H)-one] | ≤ 500
COc1ccccc1-c1cc(=O)oc2c(C)c3occ(C)c3cc12 [Example 1, 5-(2-methoxyphenyl)-3,9-dimethyl-7H-furo[3,2-g]chromen-7-one] | ≤ 500
Cc1c(-c2cccnc2)c2cc3c(C)coc3c(C)c2[nH]c1=O [Example 54, 3,6,9-trimethyl-5-(pyridin-3-yl)furo[3,2-g]quinolin-7(8H)-one] | ≤ 500
Cc1coc2c(C)c3oc(=O)cc(-c4ccccc4F)c3cc12 [Example 8, 5-(2-fluorophenyl)-3,9-dimethyl-7H-furo[3,2-g]chromen-7-one] | ≤ 500
Cc1coc2c(C)c3[nH]c(=O)c(Br)c(-c4ccccc4F)c3cc12 [Example 27, 6-bromo-5-(2-fluorophenyl)-3,9-dimethylfuro[3,2-g]quinolin-7(8H)-one] | 501 to 1500
Cc1c(-c2ccccc2Cl)c2cc3c(C)coc3c(C)c2n(C)c1=O [Example 60, 5-(2-chlorophenyl)-3,6,8,9-tetramethylfuro[3,2-g]quinolin-7(8H)-one] | ≤ 500
Cc1c(-c2ccccc2)c2cc3c(C)coc3c(C)c2n(C)c1=O [Example 34, 3,6,8,9-tetramethyl-5-phenylfuro[3,2-g]quinolin-7(8H)-one] | ≤ 500
Cc1c(-c2ccccc2F)c2cc3c(C)coc3c(C)c2[nH]c1=O [Example 30, 5-(2-fluorophenyl)-3,6,9-trimethylfuro[3,2-g]quinolin-7(8H)-one] | ≤ 500
Cc1c(-c2ccccc2)c2cc3c(C)noc3c(C)c2[nH]c1=O [Example 36, 3,6,9-trimethyl-5-phenylisoxazolo[4,5-g]quinolin-7(8H)-one] | ≤ 500
Cc1c(-c2ccccc2)c2cc3c(C)coc3nc2n(C)c1=O [Example 49, 3,6,8-trimethyl-5-phenylfuro[2,3-b][1.8]naphthyridin-7(8H)-one] | ≤ 500
CCc1coc2c(C)c3oc(=O)c(C)c(-c4ccccc4)c3cc12 [Example 16, 3-ethyl-6,9-dimethyl-5-phenyl-7H-furo[3,2-g]chromen-7-one] | ≤ 500
Cc1c(-c2ccccc2Cl)c2cc3c(C)coc3c(C)c2[nH]c1=O [Example 40, 5-(2-chlorophenyl)-3,6,9-trimethylfuro[3,2-g]quinolin-7(8H)-one] | ≤ 500
COc1ccccc1-c1c(C)c(=O)oc2c(C)c3occ(C)c3cc12 [Example 7, 5-(2-methoxyphenyl)-3,6,9-trimethyl-7H-furo[3,2-g]chromen-7-one] | ≤ 500
Cc1coc2c(C)c3c(cc12)c(-c1ccccc1)c(Br)c(=O)n3C [Example 33, 6-bromo-3,8,9-trimethyl-5-phenylfuro[3,2-g]quinolin-7(8H)-one] | ≤ 500

Test system: female Dark Agouti rats
Test: Pristane-induced arthritis (PIA) model
Format: in vivo, rat
Conditions: MTX 0.05 mg/kg i.p., sid, DAY16 to DAY30; maximum AI=16; controls AI around 14; p=0.001
Protocol: Pristane-Induced Arthritis (PIA) Model
Arthritis was induced in female Dark Agouti rats by intradermal injection of 150 μL/rat pristane into the base of the tail on DAY0, according to Vingsbo et al., Am. J. Pathol. 1996, 149, 1675. Compound treatment was started on DAY16 and continued until DAY30, dosing Example 53 at 60 mg/kg, p.o., sid, and Example 34 at 45 mg/kg, p.o., bid, each in a lipophilic formulation. As a positive control, methotrexate (MTX) was dosed i.p., sid, with 0.05 mg/kg, also starting DAY16. Arthritis development was monitored daily by a macroscopic scoring system for the four limbs ranging from 0 to 4 (0=no visible effects of arthritis; 1=edema and/or erythema of one digit; 2=edema and/or erythema of two joints; 3=edema and/or erythema of more than two joints; 4=severe arthritis of the entire paw and digits, associated with ankylosis and deformity of the paw.), resulting in an Arthritic Index (AI) reflecting the sum of scores of all 4 limbs per rat (maximum AI=16).
Disease induction in saline-treated and vehicle-treated control animals reached a maximum of AI around 14.

Structure (SMILES) | Arthritic Index (AI)
CN(Cc1cnc2nc(N)nc(N)c2n1)c1ccc(C(=O)N[C@@H](CCC(=O)O)C(=O)O)cc1 [MTX, methotrexate] | ~8.7
